{"source": "ChEMBL document CHEMBL5360584", "about": "“Sequence-Specific Dual DNA Binding Modes and Cytotoxicities of N-6-Functionalized Norcryptotackieine Alkaloids” (J Nat Prod, 2023)", "key": {"Calf thymus DNA [1]": {"system": "Calf thymus DNA", "assay": "Binding affinity to calf thymus DNA assessed as change in absorption by UV-Vis spectrophotometric analysis", "format": "nucleic-acid assay", "conditions": "Bos taurus"}, "Calf thymus DNA [2]": {"system": "Calf thymus DNA", "assay": "Binding affinity to calf thymus DNA assessed as dissociation constant by UV-Vis spectroscopic analysis", "format": "nucleic-acid assay, Bos taurus"}, "Calf thymus DNA [3]": {"system": "Calf thymus DNA", "assay": "Binding affinity to calf thymus DNA assessed as dissociation constant", "format": "nucleic-acid assay, Bos taurus"}, "HEK293": {"system": "HEK293", "assay": "Cytotoxicity against human HEK293 cells assessed as reduction in cell viability incubated for 24 hrs by MTT assay", "format": "functional, cell-based", "conditions": "HEK293, 24 h"}, "HeLa": {"system": "HeLa", "assay": "Cytotoxicity against human HeLa cells assessed as reduction in cell viability incubated for 24 hrs by MTT assay", "format": "functional, cell-based"}, "SK-OV-3": {"system": "SK-OV-3", "assay": "Cytotoxicity against human SK-OV-3 cells assessed as reduction in cell viability incubated for 24 hrs by MTT assay", "format": "functional, cell-based", "conditions": "SK-OV-3, 24 h"}, "B16-F10": {"system": "B16-F10", "assay": "Cytotoxicity against mouse B16F10 cells assessed as reduction in cell viability incubated for 24 hrs by MTT assay", "format": "functional, cell-based", "conditions": "B16-F10, 24 h"}, "OVCAR-3": {"system": "OVCAR-3", "assay": "Cytotoxicity against human OVCAR-3 cells assessed as reduction in cell viability incubated for 24 hrs by MTT assay", "format": "functional, cell-based", "conditions": "OVCAR-3, 24 h"}, "Calf thymus DNA [4]": {"system": "Calf thymus DNA", "assay": "Binding affinity to calf thymus DNA assessed as dissociation constant measured at 337 nm absorbance by UV-Vis spectroscopic analysis", "format": "nucleic-acid assay, Bos taurus"}, "Calf thymus DNA [5]": {"system": "Calf thymus DNA", "assay": "Binding affinity to calf thymus DNA assessed as dissociation constant measured at 332 nm absorbance by UV-Vis spectroscopic analysis", "format": "nucleic-acid assay, Bos taurus"}, "Calf thymus DNA [6]": {"system": "Calf thymus DNA", "assay": "Binding affinity to calf thymus DNA assessed as dissociation constant by reverse titration method", "format": "nucleic-acid assay, Bos taurus"}}, "note": "Active and inactive are the calls of the source. The calls are words filed in the database; no cut-off is given here.", "data": [{"smiles": "c1ccc2nc3c(cc2c1)c1ccccc1n3CCCN1CCCC1", "values": [{"measurement": "Activity", "setting": "Calf thymus DNA [1]", "value": "Active"}]}, {"smiles": "C[n+]1c2ccccc2cc2[n-]c3ccccc3c21", "note": "[CRYPTOLEPINE]", "values": [{"measurement": "Kd", "setting": "Calf thymus DNA [2]", "value": 0.24, "unit": "µM"}, {"measurement": "Kd", "setting": "Calf thymus DNA [3]", "value": 0.33, "unit": "µM"}]}, {"smiles": "CN1CCN(CCCn2c3ccccc3c3cc4ccccc4nc32)CC1", "values": [{"measurement": "Activity", "setting": "Calf thymus DNA [1]", "value": "Active"}]}, {"smiles": "c1ccc(-n2c3ccccc3c3cc4ccccc4nc32)cc1", "values": [{"measurement": "Activity", "setting": "Calf thymus DNA [1]", "value": "Active"}]}, {"smiles": "CCCCn1c2ccccc2c2cc3ccccc3nc21", "values": [{"measurement": "Activity", "setting": "Calf thymus DNA [1]", "value": "Active"}]}, {"smiles": "c1ccc2[nH]c3nc4ccccc4c-3cc2c1", "values": [{"measurement": "IC50", "setting": "HEK293", "value": "> 100", "unit": "µM"}, {"measurement": "IC50", "setting": "HeLa", "value": "> 100", "unit": "µM"}, {"measurement": "IC50", "setting": "SK-OV-3", "value": "> 100", "unit": "µM"}, {"measurement": "Activity", "setting": "Calf thymus DNA [1]", "value": "Active"}, {"measurement": "IC50", "setting": "B16-F10", "value": "> 100", "unit": "µM"}, {"measurement": "IC50", "setting": "OVCAR-3", "value": "> 100", "unit": "µM"}]}, {"smiles": "CN(C)CCCCn1c2ccccc2c2cc3ccccc3nc21", "values": [{"measurement": "Activity", "setting": "Calf thymus DNA [1]", "value": "Active"}]}, {"smiles": "CN(CCCn1c2ccccc2c2cc3ccccc3nc21)CCCn1c2ccccc2c2cc3ccccc3nc21", "values": [{"measurement": "Activity", "setting": "Calf thymus DNA [1]", "value": "Active"}]}, {"smiles": "c1ccc(Cn2c3ccccc3c3cc4ccccc4nc32)cc1", "values": [{"measurement": "Activity", "setting": "Calf thymus DNA [1]", "value": "Active"}]}, {"smiles": "c1ccc2nc3c(cc2c1)c1ccccc1n3CCCn1ccnc1", "values": [{"measurement": "Activity", "setting": "Calf thymus DNA [1]", "value": "Active"}]}, {"smiles": "c1ccc2nc3c(cc2c1)c1ccccc1n3CCCN1CCOCC1", "values": [{"measurement": "Activity", "setting": "Calf thymus DNA [1]", "value": "Active"}]}, {"smiles": "Cn1c2ccccc2c2cc3ccccc3nc21", "values": [{"measurement": "IC50", "setting": "HEK293", "value": "> 100", "unit": "µM"}, {"measurement": "IC50", "setting": "HeLa", "value": "> 100", "unit": "µM"}, {"measurement": "IC50", "setting": "SK-OV-3", "value": "> 100", "unit": "µM"}, {"measurement": "Activity", "setting": "Calf thymus DNA [1]", "value": "Active"}, {"measurement": "IC50", "setting": "B16-F10", "value": "> 100", "unit": "µM"}, {"measurement": "IC50", "setting": "OVCAR-3", "value": "> 100", "unit": "µM"}]}, {"smiles": "CN(C)CCn1c2ccccc2c2cc3ccccc3nc21", "values": [{"measurement": "Activity", "setting": "Calf thymus DNA [1]", "value": "Active"}]}, {"smiles": "CN(C)CCCn1c2ccccc2c2cc3ccccc3nc21", "values": [{"measurement": "Activity", "setting": "Calf thymus DNA [1]", "value": "Active"}, {"measurement": "Kd", "setting": "Calf thymus DNA [2]", "value": 20, "unit": "µM"}, {"measurement": "Kd", "setting": "Calf thymus DNA [4]", "value": 120, "unit": "µM"}, {"measurement": "Kd", "setting": "Calf thymus DNA [5]", "value": 10, "unit": "µM"}, {"measurement": "Kd", "setting": "Calf thymus DNA [6]", "value": 17, "unit": "µM"}]}]}
